Source: patent US20240343733A1, “COMPOUNDS FOR TARGETING DEGRADATION OF IRAK4 PROTEINS” (BIOGEN MA INC., priority 2021, published 2024)

These molecules were tested against T1, IRAK4 (Homo sapiens, UniProt Q9NWZ3) (assay: IRAK4 Degradation Assay, HiBiT Method). Conditions: 293T cells expressing HiBiT-tagged IRAK4, 6 hours.
T1 construct: 293Tcells expressing HiBiT-tagged IRAK4 were then added into 384-well plates
T1 sequence (Q9NWZ3 1-460): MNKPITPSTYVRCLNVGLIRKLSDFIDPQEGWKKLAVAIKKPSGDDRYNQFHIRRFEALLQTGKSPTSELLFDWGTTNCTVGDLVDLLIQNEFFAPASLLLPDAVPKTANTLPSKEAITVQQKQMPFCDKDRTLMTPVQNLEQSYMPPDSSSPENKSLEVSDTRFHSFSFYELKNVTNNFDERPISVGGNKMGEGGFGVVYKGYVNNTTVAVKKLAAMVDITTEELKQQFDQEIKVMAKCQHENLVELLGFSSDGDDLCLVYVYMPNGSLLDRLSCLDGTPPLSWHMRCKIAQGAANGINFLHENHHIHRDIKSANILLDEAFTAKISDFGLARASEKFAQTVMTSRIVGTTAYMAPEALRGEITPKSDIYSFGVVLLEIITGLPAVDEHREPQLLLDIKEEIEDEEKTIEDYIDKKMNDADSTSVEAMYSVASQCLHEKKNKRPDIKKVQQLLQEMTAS
Format: cell-based
Procedure, shortened: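 Luminescent read-out with Nano-Glo HiBiT lytic reagent after 6 h compound exposure at 37 °C. Cells were HiBiT-IRAK4 knock-in 293T (C-terminal tag), 10,000 per well. Compounds ran as 11-point half-log dilutions from […] highest dose, duplicate wells; DMSO served as negative control.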

CC(C)Oc1cc2nc(C3CCN(C(=O)NC4CCN(c5ncc(C6CCC(=O)NC6=O)cc5F)CC4)CC3)cn2cc1C(=O)Nc1cnn2cccnc12 (stereo not drawn) [Example 158, 2-(1-((1-(5-(2,6-dioxopiperidin-3-yl)-3-fluoropyridin-2-yl)piperidin-4-yl)carbamoyl)piperidin-4-yl)-7-isopropoxy-N-(pyrazolo[1,5-a]pyrimidin-3-yl)imidazo[1,2-a]pyridine-6-carboxamide] and CC(C)Oc1cc2nc([C@H]3CC[C@H](CNCC4(O)CCN(c5ncc(C6CCC(=O)NC6=O)cc5F)CC4)CC3)cn2cc1C(=O)Nc1cnn2cccnc12 (stereo partly drawn) [Example 176] cannot be ordered by DC50: under 10 nM for the first, under 10 nM for the second.

Compared with CC(C)Oc1cc2nc(C3CCN(C(=O)CC4CCN(c5ccc(C6CCC(=O)NC6=O)cn5)CC4)CC3)cn2cc1C(=O)Nc1cccn([C@H]2C[C@H]2F)c1=O (stereo partly drawn) [Example 160, 2-(1-(2-(1-(5-(2,6-dioxopiperidin-3-yl)pyridin-2-yl)piperidin-4-yl)acetyl)piperidin-4-yl)-N-(1-((1S,2R)-2-fluorocyclopropyl)-2-oxo-1,2-dihydropyridin-3-yl)-7-isopropoxyimidazo[1,2-a]pyridine-6-carboxamide], CC(C)Oc1cc2nc(C3CCN(C(=O)CC4CCN(c5ncc(C6CCC(=O)NC6=O)cc5F)CC4)CC3)cn2cc1C(=O)Nc1cccn([C@H]2C[C@H]2F)c1=O (stereo partly drawn) [Example 161, 2-(1-(2-(1-(5-(2,6-dioxopiperidin-3-yl)-3-fluoropyridin-2-yl)piperidin-4-yl)acetyl)piperidin-4-yl)-N-(1-((1S,2R)-2-fluorocyclopropyl)-2-oxo-1,2-dihydropyridin-3-yl)-7-isopropoxyimidazo[1,2-a]pyridine-6-carboxamide] is higher in DC50: under 10 nM for the first, 10 to 100 nM for the second.

First: CC(C)Oc1cc2nc(C3CCN(C(=O)CN4CCN(c5ccc(C6CCC(=O)NC6=O)cn5)CC4)CC3)cn2cc1C(=O)Nc1cccn([C@H]2C[C@H]2F)c1=O (stereo partly drawn) [Example 163, 2-(1-(2-(4-(5-(2,6-dioxopiperidin-3-yl)pyridin-2-yl)piperazin-1-yl)acetyl)piperidin-4-yl)-N-(1-((1S,2R)-2-fluorocyclopropyl)-2-oxo-1,2-dihydropyridin-3-yl)-7-isopropoxyimidazo[1,2-a]pyridine-6-carboxamide]
Second: CC(C)Oc1cc2nc(C3CCN(C(=O)CCCNc4ccc(C5CCC(=O)NC5=O)cn4)CC3)cn2cc1C(=O)Nc1cccn([C@H]2C[C@H]2F)c1=O (stereo partly drawn) [Example 164, 2-(1-(4-((5-(2,6-dioxopiperidin-3-yl)pyridin-2-yl)amino)butanoyl)piperidin-4-yl)-N-(1-((1S,2R)-2-fluorocyclopropyl)-2-oxo-1,2-dihydropyridin-3-yl)-7-isopropoxyimidazo[1,2-a]pyridine-6-carboxamide]
The DC50 of the first is lower: under 10 nM for the first, 10 to 100 nM for the second.

First: CC(C)Oc1cc2nc(C3CCN(C(=O)CCCCNc4ccc(C5CCC(=O)NC5=O)cn4)CC3)cn2cc1C(=O)Nc1cccn([C@H]2C[C@H]2F)c1=O (stereo partly drawn) [Example 165, 2-(1-(5-((5-(2,6-dioxopiperidin-3-yl)pyridin-2-yl)amino)pentanoyl)piperidin-4-yl)-N-(1-((1S,2R)-2-fluorocyclopropyl)-2-oxo-1,2-dihydropyridin-3-yl)-7-isopropoxyimidazo[1,2-a]pyridine-6-carboxamide]
Second: CC(C)Oc1cc2nc([C@H]3CC[C@H](CN4CCC(c5ccc6c(c5)oc(=O)n6C5CCC(=O)NC5=O)CC4)CC3)cn2cc1C(=O)Nc1cccn([C@H]2C[C@H]2F)c1=O (stereo partly drawn) [Example 175, 2-((1r,4S)-4-((4-(3-(2,6-dioxopiperidin-3-yl)-2-oxo-2,3-dihydrobenzo[d]oxazol-6-yl)piperidin-1-yl)methyl)cyclohexyl)-N-(1-((1S,2R)-2-fluorocyclopropyl)-2-oxo-1,2-dihydropyridin-3-yl)-7-isopropoxyimidazo[1,2-a]pyridine-6-carboxamide]
The DC50 of the first is higher: 10 to 100 nM for the first, under 10 nM for the second.

Compared with CC(C)Oc1cc2nc([C@H]3CC[C@H](CN4CCC(c5ccc(OC6CCC(=O)NC6=O)cc5)CC4)CC3)cn2cc1C(=O)Nc1cccn(C2CC2)c1=O (stereo partly drawn) [Example 166, N-(1-cyclopropyl-2-oxo-1,2-dihydropyridin-3-yl)-2-((1r,4r)-4-((4-(4-((2,6-dioxopiperidin-3-yl)oxy)phenyl)piperidin-1-yl)methyl)cyclohexyl)-7-isopropoxyimidazo[1,2-a]pyridine-6-carboxamide], CC(C)Oc1cc2nc([C@H]3CC[C@H](CN4CCC(c5ccc6c(c5)n(C)c(=O)n6C5CCC(=O)NC5=O)CC4)CC3)cn2cc1C(=O)Nc1cccn(C2CC2)c1=O (stereo partly drawn) [Example 167, N-(1-cyclopropyl-2-oxo-1,2-dihydropyridin-3-yl)-2-((1r,4r)-4-((4-(1-(2,6-dioxopiperidin-3-yl)-3-methyl-2-oxo-2,3-dihydro-1H-benzo[d]imidazol-5-yl)piperidin-1-yl)methyl)cyclohexyl)-7-isopropoxyimidazo[1,2-a]pyridine-6-carboxamide] is lower in DC50: 10 to 100 nM for the first, under 10 nM for the second.

CC(C)Oc1cc2nc([C@H]3CC[C@H](CN4CCC(c5ccc6c(c5)n(C)c(=O)n6C5CCC(=O)NC5=O)C(F)(F)C4)CC3)cn2cc1C(=O)Nc1cccn([C@H]2C[C@H]2F)c1=O (stereo partly drawn) [Example 168, 2-((1r,4S)-4-((4-(1-(2,6-dioxopiperidin-3-yl)-3-methyl-2-oxo-2,3-dihydro-1H-benzo[d]imidazol-5-yl)-3,3-difluoropiperidin-1-yl)methyl)cyclohexyl)-N-(1-((1S,2R)-2-fluorocyclopropyl)-2-oxo-1,2-dihydropyridin-3-yl)-7-isopropoxyimidazo[1,2-a]pyridine-6-carboxamide] and CC(C)Oc1cc2nc([C@H]3CC[C@H](CN4CCC(c5cc6c(cc5F)c(N5CCC(=O)NC5=O)nn6C)C(F)(F)C4)CC3)cn2cc1C(=O)Nc1cccn([C@H]2C[C@H]2F)c1=O (stereo partly drawn) [Example 172, 2-((1r, 4S)-4-((4-(3-(2,4-dioxotetrahydropyrimidin-1 (2H)-yl)-5-fluoro-1-methyl-1H-indazol-6-yl)-3,3-difluoropiperidin-1-yl)methyl)cyclohexyl)-N-(1-((1 S, 2R)-2-fluorocyclopropyl)-2-oxo-1,2-dihydropyridin-3-yl)-7-isopropoxyimidazo[1,2-a]pyridine-6-carboxamide] fall in the same range of DC50: 10 to 100 nM for the first, 10 to 100 nM for the second.

First: CC(C)Oc1cc2nc([C@H]3CC[C@H](CN4CCC(c5cc6c(cc5F)c(N5CCC(=O)NC5=O)nn6C)C(F)(F)C4)CC3)cn2cc1C(=O)Nc1cnn2cccnc12 (stereo partly drawn) [Example 170, 2-((1r,4r)-4-((4-(3-(2,4-dioxotetrahydropyrimidin-1(2H)-yl)-5-fluoro-1-methyl-1H-indazol-6-yl)-3,3-difluoropiperidin-1-yl)methyl)cyclohexyl)-7-isopropoxy-N-(pyrazolo[1,5-a]pyrimidin-3-yl)imidazo[1,2-a]pyridine-6-carboxamide]
Second: CC(C)Oc1cc2nc([C@H]3CC[C@H](CN4CC[C@H](c5ccc6c(N7CCC(=O)NC7=O)nn(C)c6c5)[C@H](O)C4)CC3)cn2cc1C(=O)Nc1cnn2cccnc12 [Example 177, 2-((1S,4r)-4-(((3S,4R)-4-(3-(2,4-dioxotetrahydropyrimidin-1(2H)-yl)-1-methyl-1H-indazol-6-yl)-3-hydroxypiperidin-1-yl)methyl)cyclohexyl)-7-isopropoxy-N-(pyrazolo[1,5-a]pyrimidin-3-yl)imidazo[1,2-a]pyridine-6-carboxamide]
The DC50 of the first is higher: 10 to 100 nM for the first, under 10 nM for the second.

CC(C)Oc1cc2nc([C@H]3CC[C@H](CN4CC[C@H](c5ccc6c(N7CCC(=O)NC7=O)nn(C)c6c5)[C@H](O)C4)CC3)cn2cc1C(=O)Nc1cccn([C@H]2C[C@H]2F)c1=O [Example 171, 2-((1S,4S)-4-(((3S,4R)-4-(3-(2,4-dioxotetrahydropyrimidin-1(2H)-yl)-1-methyl-1H-indazol-6-yl)-3-hydroxypiperidin-1-yl)methyl)cyclohexyl)-N-(1-((1S,2R)-2-fluorocyclopropyl)-2-oxo-1,2-dihydropyridin-3-yl)-7-isopropoxyimidazo[1,2-a]pyridine-6-carboxamide] and CC(C)Oc1cc2nc([C@H]3CC[C@H](CN4CC[C@H](c5ccc6c(N7CCC(=O)NC7=O)nn(C)c6c5)[C@H](O)C4)CC3)cn2cc1C(=O)Nc1cccn(C2CC2)c1=O [Example 178, N-(1-cyclopropyl-2-oxo-1,2-dihydropyridin-3-yl)-2-((S,4r)-4-(((3S,4R)-4-(3-(2,4-dioxotetrahydropyrimidin-1(2H)-yl)-1-methyl-1H-indazol-6-yl)-3-hydroxypiperidin-1-yl)methyl)cyclohexyl)-7-isopropoxyimidazo[1,2-a]pyridine-6-carboxamide] cannot be ordered by DC50: under 10 nM for the first, under 10 nM for the second.

First: CC(C)Oc1cc2nc([C@H]3CC[C@H](CN4CCC(c5ccc6c(c5)oc(=O)n6C5CCC(=O)NC5=O)CC4)CC3)cn2cc1C(=O)Nc1cnn2cccnc12 (stereo partly drawn) [Example 173, 2-((1r,4r)-4-((4-(3-(2,6-dioxopiperidin-3-yl)-2-oxo-2,3-dihydrobenzo[d]oxazol-6-yl)piperidin-1-yl)methyl)cyclohexyl)-7-isopropoxy-N-(pyrazolo[1,5-a]pyrimidin-3-yl)imidazo[1,2-a]pyridine-6-carboxamide]
Second: CC(C)Oc1cc2nc([C@H]3CC[C@H](CN4CCC(c5ncc(NC6CCC(=O)NC6=O)cc5F)CC4)CC3)cn2cc1C(=O)Nc1cccn(C2CC2)c1=O (stereo partly drawn) [Example 174, N-(1-cyclopropyl-2-oxo-1,2-dihydropyridin-3-yl)-2-((1r,4r)-4-((4-(5-((2,6-dioxopiperidin-3-yl)amino)-3-fluoropyridin-2-yl)piperidin-1-yl)methyl)cyclohexyl)-7-isopropoxyimidazo[1,2-a]pyridine-6-carboxamide]
The DC50 of the first is lower: under 10 nM for the first, 10 to 100 nM for the second.
